These results are taken from US20130085105A1, “Transdermal Administration Of Peptides” (The Provost, Fellows and Scholars of the College of Holy …, priority 2010, published 2013).

The nature of series [1]: In vitro transdermal permeation, diffusion cell, pig epidermis. The format is in vitro ADME, domestic pigs. Particulars: from Jss across pig epidermis, 55/40/5 ethanol/water/cineole; patch area of 20 cm^2. The method, then:
The viable epidermal layer was removed from the flanks of freshly sacrificed four month-old female domestic pigs. The flank area of each animal was carefully shaved and the upper 200 μm of skin (Meyer, W., et al., Curr. Prob. Dermatol., 7: 39-52, 1978; de Jalón, et al., J. Control. Rel., 75:191-197, 2001) was harvested using an electric dermatome (Robbins Instruments, Chatham, N.J., U.S.A.). Pigskin epidermal specimens were frozen at −18° C. between layers of PBS-soaked tissue paper enclosed in aluminum foil for up to two weeks prior to use in in vitro permeation studies.
A custom made finite dosing diffusion cell (AGB Scientific, Dublin, Ireland, FIG. 1) based upon and modified from the Keshary-Chien type diffusion cell was used for in vitro permeation studies.
Three to five diffusion cells were used in each permeation experiment and monitoring was performed over a 48 hour period. The cells were linked in series to a thermostatically controlled circulation bath set at 35° C. to mimic human skin surface temperature. Each cell was placed on a stir-plate set at a defined stirring rate of 1,000 rpm. The surface area for permeation provided by each cell was 3.14 cm^2.
Data collected from each permeation study included:
1) the average maximum flux obtained in 48 hours (Jmax),
2) the total absorption characterized as the total weight of peptide delivered transdermally into the receiver compartment over a 48 hour period,
3) the lag time to detectable flux which was equivalent to the latest sampling time at which no peptide was detectable by HPLC analysis of the receiver solution, and
4) an equivalent 48-hour steady state flux was determined by obtaining the slope of the best-fit line for a plot of cumulative flux per unit area versus time (described by McDaid, D. M. et al., Int. J. Pharm., 133:71-83, 1996).
Fresh hairless mouse skin samples or fresh or freshly thawed pig skin samples were mounted onto the diffusion cell with the SC topmost and in contact with the donor system. A rubber or plastic ring was placed on top of the skin sample to secure it in position. The combination of the diffusion cell top, the skin and the rubber ring was securely fastened together by means of a threaded cap. A recorded volume of receiver solution was added to the receiver compartment and maintained at 35° C. The receiver solution was 60/40 (v/v) PBS/propylene glycol (pH 7.1). The propylene glycol fraction was used to increase the solubility of the somatostatin-fatty acid salts. Previous work reported by Morgan et al. (J. Pharm. Sci., 87:1213-1218, 1998) has shown that a 50/50 water/propylene glycol receptor solution had no detrimental effect on the barrier integrity of both hairless mouse and porcine skin.
The receiver solution was allowed to equilibrate at 35° C. for 30 minutes. The experiment was initiated by the application of 1 ml of donor solution containing approximately 5 mg free base peptide in DMSO to the skin surface followed by sealing of the donor compartment with Parafilm®. A narrow-bore hypodermic needle was used to withdraw 1 ml samples from the receiver compartment via the sampling port; at each sampling time, an equal volume of drug-free receiver solution was immediately added back to the receiver compartment. Samples were analyzed by HPLC.
HPLC determination of peptide content in the receiver solution along with the known surface area of skin used (3.14 cm^2) allowed for calculation of transdermal flux (in units of μg/cm^2/hr) for each time point. Panels 1 and 2 of FIG. 2 show flux profiles obtained for the oleate salts of Compound A and Compound B in DMSO which far exceeded the flux profiles for the myristate, octanoate, decanoate, linoleate, nonanote, acetate and laurate salts of Compound A as well as the acetate salt of Compound B in DMSO. […]

Series [2] is described as follows: Pharmacokinetics of Compound A after i.v. infusion to healthy human volunteers (Chassard et al.). The format is in vivo. As for the experimental part:
A number of basic equations exist for the prediction of drug plasma levels in humans obtained by transdermal delivery. In order to make use of these equations, basic human pharmacokinetic parameters are required for the drug in question. Chassard et al. (J. Endocrinol. Invest. 20(Supp. to no. 7):30-32, 1997) reported on the pharmacokinetics of Compound A after i.v. infusion of 7, 21 and 42 μg/Kg to healthy human volunteers (n=12) obtaining values as shown in Table 20.
The values obtained for the intermediate dose of 21 μg/Kg were used to determine the necessary input rate, i.e., steady state flux, required in humans to achieve therapeutic plasma levels as outlined by Lee et al. (Res. Comm. Mol. Path. Pharmacol., 85, 337-346, 1994) in their studies on melatonin. […] As described by Chatterjee et al. (Pharm. Res., 14:1058-1065, 1997), the following equation can be used to predict required delivery rates, assuming transdermal delivery can be treated as an intravenous infusion: […]

Series [3] is described as follows: Calculation of required transdermal delivery rate in humans (Eqn. 10.5). Particulars: human. As for the experimental part:
The values obtained for the intermediate dose of 21 μg/Kg were used to determine the necessary input rate, i.e., steady state flux, required in humans to achieve therapeutic plasma levels as outlined by Lee et al. (Res. Comm. Mol. Path. Pharmacol., 85, 337-346, 1994) in their studies on melatonin. […] As described by Chatterjee et al. (Pharm. Res., 14:1058-1065, 1997), the following equation can be used to predict required delivery rates, assuming transdermal delivery can be treated as an intravenous infusion:
where K0 is the required zero order delivery rate to achieve a therapeutic steady state plasma concentration (Cpss). […] Thus, for a skin area of 20 cm^2, the required steady-state transdermal flux would be 0.45 μg/cm^2/hr. Assuming a therapeutic plasma level of 0.5 ng/ml for Compound B and utilizing the relevant Compound A parameters, a required steady-state flux of 0.23 μg/cm^2/hr was calculated for a skin area of 20 cm^2.

For series [4] the following is noted: human, cited from earlier work.
The conditions of series [5]: cited from earlier work.
For series [6] the following is noted: rabbits, iontophoresis; cited from earlier work.
The conditions of series [7]: mice, topical with 1% N-decylmethylsulfoxide, within 2 hours of administration; cited from earlier work.

Where two headings read alike, the source gives them in different places.

Regarding `CC(C)[C@@H]1NC(=O)[C@H](CCCCN)NC(=O)[C@@H](Cc2c[nH]c3ccccc23)NC(=O)[C@H](Cc2ccc(O)cc2)NC(=O)[C@@H](NC(=O)[C@H](N)Cc2ccc3ccccc3c2)CSSC[C@@H](C(=O)N[C@H](C(N)=O)[C@@H](C)O)NC1=O` [Compound A, D-2-Nal-c(Cys-Tyr-D-Trp-Lys-Val-Cys)-Thr-NH2], in series [1], the “estimated daily systemic delivery across human skin” value is listed as “approximately 0.675 mg”. Further, the “CL for a 70 Kg human” value in series [2] (292 (ml/hr)/Kg×70 Kg) is 20,440 cm^3/hr. In series [2] (human, plasma, intravenous, 21 ug/kg, from Vss at 21 μg/Kg multiplied by 70 Kg), this molecule returned a Vd of 13 L. Moreover, the “required input rate (K0)” value in series [3] (required Cpss=1 ng/ml, Eqn. 10.5) was 8.98 µg/h. The “required steady-state transdermal flux” value in series [3] (skin area of 20 cm^2, Cpss 1 ng/ml (Compound A), 0.5 ng/ml (Compound B, using Compound A parameters)) was 0.45 μg/cm^2/hr. In series [4] (i.v. infusion 7 μg/Kg), the AUC is 21.2 ± 4.1 (ng/ml)/hr, the CL was 341 ± 62 (ml/hr)/Kg, the Kel was 0.87 ± 0.11 h⁻¹ and the MRTinfusion is 42 ± 6 min. In addition, in series [4] (i.v. infusion 7 μg/Kg), the Vss is 0.194 ± 0.041 L/kg and the t1/2 is 48 ± 6 min. Also, in series [4] (i.v. infusion 21 μg/Kg), the AUC is listed as 74.3 ± 13.7 (ng/ml)/hr, the CL is listed as 292 ± 58 (ml/hr)/Kg, the Kel was 0.69 ± 0.07 h⁻¹ and the MRTinfusion was 48 ± 6 min. In addition, in series [4] (i.v. infusion 21 μg/Kg), the Vss was 0.186 ± 0.044 L/kg and the t1/2 was 60 ± 6 min. For the same molecule, in series [4] (i.v. infusion 42 μg/Kg), the AUC is 180.6 ± 46.6 (ng/ml)/hr, the CL is listed as 249 ± 72 (ml/hr)/Kg, the Kel was 0.43 ± 0.09 h⁻¹ and the MRTinfusion was 54 ± 12 min. In addition, in series [4] (i.v. infusion 42 μg/Kg), the Vss is 0.187 ± 0.049 L/kg and the t1/2 is 96 ± 18 min.

Regarding `CC(C(=O)O)c1ccc(N=[N+]=[N-])cc1` (stereo not shown) [azidoprofen], the results for the “flux through hairless mouse skin” value in series [5] (donor concentration 6 μmol cm-3) and in series [5] (donor concentration 15 μmol cm-3) were 0.236 μmol cm-2 hr-1 and 0.649 μmol cm-2 hr-1, respectively.

Consider `C[C@@H](O)[C@@H]1NC(=O)[C@H](CCCCN)NC(=O)[C@@H](Cc2c[nH]c3ccccc23)NC(=O)[C@H](Cc2ccccc2)NC(=O)[C@@H](NC(=O)[C@H](N)Cc2ccccc2)CSSC[C@@H](C(=O)N[C@H](CO)[C@@H](C)O)NC1=O` [octreotide, D-Phe-c(Cys-Phe-D-Trp-Lys-Thr-Cys)-Thr-ol], for which, in series [6], the apparent bioavailability result is listed as “approximately 8%” and the “therapeutic plasma concentration throughout the iontophoretic episode” value is given as “greater than 1 ng/ml”. In addition, the “plasma levels of peptide” value in series [7] is more than 8 ng/mL.

What is called Vd is the apparent volume that relates the amount in the body to the concentration in plasma or blood. Low readings indicate confinement near the circulation, high ones extensive tissue distribution. The Vss is the apparent volume that relates the amount in the body to the concentration in plasma or blood.
